Tested on: CCL39 cells
Assay: Polyfection in the presence of glycerol, CCL39 cells
Assay type: cell-based, hamster
Conditions: glycerol 0.23 M, charge ratio 2.2, 5 h30
Protocol: Further, by way of comparison, transfection was carried out in the presence of polyethylene […] (PEI), 25 kDa (Aldrich, St Louis, Mo.) in a charge ratio of 2.2 in the presence of glycerol and 5 in the absence of glycerol.

Structure (SMILES): OCC(O)CO [glycerol]
- increase in polyfection (luciferase activity) induced by glycerol: 38 factor
